Experiments:
[1] = Solubility in different organic solvents (aliquot addition until dissolution); assay type: physicochemical
Protocol: Solubility in different organic solvents was measured using the following protocol. Approximately 25 mg portions of genistein and crystalline genistein sodium dihydrate salt were placed in 48 different vials, separately. 5 volume aliquots of each solvent were added exclusively to a vial. Between each addition, the mixture was checked for dissolution and if no dissolution was apparent, the procedure was continued until dissolution was observed or when 50 volumes had been added.

[2] = SuperSol 1000 kinetic and equilibrium solubility assay
Protocol: Since both compounds form suspensions in pure deionized H2O, physicochemical properties were assessed from solutions of 100% EtOH as well as mixtures of dH2O and EtOH, specifically, EtOH 50/50 (vol/vol) and EtOH/dH2O 75/25 (vol/vol) according to European Pharmacopeia guidelines 01/2008, Section 2.9.3., Table 2.9.3.5. • The following parameters were measured: • t[MSS] defined as: Time from start of analysis to Maximum Solubilization Speed (min) • C[MSS] defined as: Early kinetic solubility as expressed as concentration at Maximum Solubilization Speed (mg×I^−1) • C[Eq] defined as: Late kinetic solubility as expressed as concentration at Equilibrium Kinetic Solubility (mg×I^−1) • t[Eq] defined as: Time from start of analysis to Equilibrium Kinetic solubility (min) • ΔC [CEq−CMSS] defined as: Difference in concentration between Early and Late Kinetic Solubility as defined above (mg×I^−1) • Δt [CEq−CMSS] defined as: Difference in time between Early and Late Kinetic Solubility endpoints (min) • MSS defined as: Maximum Solubility Speed defined by C[MSS]/t[Mss] (mg×I^−1×min^−1) • ISI defined as: Intrinsic Solubility Index defined by ΔC [CEq−CMSS]/Δt [CEq−CMSS] • The higher the ISI value, the faster the solubilization and the stronger the relative contribution of the late, intrinsic kinetic equilibrium solubility C[Eq]. • KSR defined as: Kinetic Solubility ratio given by C[MSS]/C[Eq]. • The KSR is the numerical ratio indicator of the relative contribution of the early kinetic Solubility to the Overall Late Kinetic Equilibrium Solubility. The higher the KSR Value, the stronger the relative contribution of the early kinetic solubility C[MSS].

[3] = Gravimetric vapor sorption (GVS); assay type: physicochemical; conditions: for maximum of water adsorbed (GVS): 0-90% RH sorption cycle; for moisture change (GVS): between 20 and 70 RH % (typical working range of material)
Protocol: Approximately 15 mg of sample was placed into a wire-mesh vapor sorption balance pan and loaded into an SMS intrinsic vapor sorption balance supplied (Surface Measurement Systems Instruments). The sample was then dried by maintaining a 0% humidity environment until no further weight change was recorded. Subsequently, the sample was then subjected to a ramping profile from 0-90% RH at 10% RH increments, maintaining the sample at each step until equilibration had been attained (99.5% step completion). Upon reaching equilibration, the % RH within the apparatus was ramped to the next step and the equilibration procedure repeated. After completion of the sorption cycle, the sample was then dried using the same procedure. The weight change during the sorption/desorption cycles were then monitored, allowing for the hygroscopic nature of the sample to be determined.

[4] = Disproportionation study (slurry in distilled water ca. 48 hours, XRPD, pH of supernatant); assay type: physicochemical; conditions: slurried in distilled water for ca. 48 hours
Protocol: (§1) A 50 mg sample of crystalline genistein sodium salt dihydrate was slurried in 250 μL distilled water for ca. 48 hours and then checked by XRPD for disproportionation. The pH of the supernatant was also measured using a Corning 240 pH meter. […] The pH of the supernatant after slurrying was 7.1.
as §1, with “A” for “A 50 mg”, “potassium” for “sodium”, “in” for “in 250 μL”, “liquid” for “after slurrying”, “7.3 indicating no disproportionation.” for “7.1.”

[5] = Aqueous solubility (slurry ca. 24 hours, filtered, HPLC-UV); assay type: physicochemical; conditions: aqueous buffer, thermodynamic from solid
Protocol: Aqueous solubility was measured using the following protocol. Slurries of genistein and of crystalline genistein sodium dihydrate salt were made up in aqueous media in which pH was set at 4.5, 6.7, and 7.5, each slurry was shaken at ambient temperature for ca. 24 hours and then filtered using a 0.2 μm filter into a clean vial. The saturated solutions were then diluted and analyzed for API (genistein) content using N—Ac-DL-Methionine on a Chirobiotic T HPLC column and UV detector set at λmax=270 nm. The mobile phase was acetonitrile/water run in isocratic mode over a 30 minute period. The results are presented in Table 3, (BDL=below detection limits).
The aqueous solubility of crystalline genistein potassium salt dihydrate was measured using the protocol described in Example 1.7. Table 16 compares the aqueous solubilities of crystalline genistein potassium salt dihydrate with that of genistein.

[6] = Stability study (80° C., 40° C./75 RH %, light; XRPD after 7 days); conditions: 40° C./75 RH % for 7 days
Protocol: Sample stability was tested at 80° C. for 7 days and at 40° C./75 RH % for 7 days. Observations such as color change were noted after 7 days and XRPD of samples were taken after 7 days to investigate any solid form change.

[7] = male, Sprague-Dawley, rat, in vivo
Protocol: (§2) Genistein and crystalline genistein sodium salt dihydrate were stored at room temperature under desiccant and protected from light. The dosing solutions were prepared fresh from powders on the day of dosing. The dosing solution for intravenous administration (IV) was prepared at 1 mg/mL (free acid) in 50:50 DMSO:saline. The dosing solutions for intraduodenal administration (ID) were prepared at 2 mg/mL (genistein free acid) in a 0.2% sodium carboxymethyl cellulose (Na CMC) solution in water.
(§3) The pharmacokinetics of genistein was evaluated in fasted male Sprague-Dawley rats. Each animal was fitted with a jugular vein cannula (JVC) for blood sampling. Animals intended for intravenous dosing were fitted with an additional JVC for dose administration. Animals intended for intraduodenal dosing were fitted with an intraduodenal cannula (IDC) for dose administration. Surgically modified animals were housed one per cage. All animals were supplied with a commercial rodent diet (LabDiet, Certified Rodent Diet #5002) ad libitum prior to study initiation. […]
(§4) Each blood sample was collected from the rats via a jugular vein cannula and placed into chilled polypropylene tubes containing sodium heparin as an anticoagulant. […] The total concentration of genistein in plasma samples were analyzed by LC-MS/MS after an overnight incubation with glucuronidase/arylsulfatase enzyme mixture. Pharmacokinetic parameters were calculated using the WinNonlin software.
(§5) An LC-MS/MS analytical method for the determination of genistein in rat plasma was developed. Prior to sample analysis, a standard curve was analyzed to determine the specificity, range, and linearity of the method. Total genistein in plasma samples was determined by pre-treating all samples with β-glucuronidase/arylsulfatase enzymes and incubating prior to analysis. […]
(§6) Individual plasma concentrations versus time data for genistein were subjected to non-compartmental analysis using the pharmacokinetic program WinNonlin v. […] Plasma concentrations below the limit of quantitation (10 ng/mL) were assigned a value of zero for PK analysis only.

[8] = Comparative pharmacokinetic study of genistein and crystalline genistein sodium salt dihydrate, intraduodenal and intravenous; conditions: rats
Protocol: as §2, §3, §4, §5, §6

In the case of O=c1c(-c2ccc(O)cc2)coc2cc(O)cc(O)c12 [Genistein, 4′,5,7-trihydroxyisoflavone-5,7-dihydroxy-3-(4-hydroxyphenyl)-4H-1-benzopyran-4-one, reference compound], the Solubility ([1]; 1,4-dioxane) is reported as <10.3 mg/mL, the Solubility ([1]; Acetone/Water (50:50)) is reported as <10.1 mg/mL and the Solubility ([1]; Acetonitrile (MeCN)) is reported as <10.1 mg/mL. For the same compound, the Solubility ([1]; Cyclohexane) was <10.7 mg/mL, the Solubility ([1]; Dichloromethane (DCM)) was <10.3 mg/mL and the Solubility ([1]; Diisopropylether (DIPE)) was <10.6 mg/mL. The Solubility ([1]; Ethanol (EtOH)) was <10.8 mg/mL, the Solubility ([1]; Methanol (MeOH)) was <10.6 mg/mL and the Solubility ([1]; Methyl acetate (MeOAc)) was <10.3 mg/mL. For the same compound, the Solubility ([1]; Methyl isobutyl ketone (MIBK)) was <10.1 mg/mL, the Solubility ([1]; Methylethyl ketone (MEK)) was <10.8 mg/mL and the Solubility ([1]; Toluene) was <10.1 mg/mL. The Solubility ([1]; Toluene/Dioxane (50:50)) was <10.1 mg/mL, the “C[Eq]” value ([2]; EtOH 100%) was 13.79 mg×I^−1 and the “C[MSS]” value ([2]; EtOH 100%) was 5.81 mg×I^−1. For the same compound, the ISI ([2]; EtOH 100%) was 2.11, the KSR ([2]; EtOH 100%) was 0.42 and the “KSR, assessment in words” value ([2]; EtOH 100%) was “acceptable”. The MSS ([2]; EtOH 100%) was 23.81 mg×I^−1×min^−1, the “MSS, assessment in words” value ([2]; EtOH 100%) was “good” and the “ΔC [C, − CMSS]” value ([2]; EtOH 100%) was 7.98 mg×I^−1. For the same compound, the “C[Eq]” value ([2]; EtOH/dH2O 50/50 (vol/vol)) was 12.87 mg×I^−1, the “C[MSS]” value ([2]; EtOH/dH2O 50/50 (vol/vol)) was 7.43 mg×I^−1 and the ISI ([2]; EtOH/dH2O 50/50 (vol/vol)) was 1.55. For the same compound, the KSR ([2]; EtOH/dH2O 50/50 (vol/vol)) was 0.58, the “KSR, assessment in words” value ([2]; EtOH/dH2O 50/50 (vol/vol)) was “acceptable” and the MSS ([2]; EtOH/dH2O 50/50 (vol/vol)) was 12.18 mg×I^−1×min^−1. The “MSS, assessment in words” value ([2]; EtOH/dH2O 50/50 (vol/vol)) was “good”, the “ΔC [CEq − CMSS]” value ([2]; EtOH/dH2O 50/50 (vol/vol)) was 5.44 mg×I^−1 and the “C[Eq]” value ([2]; EtOH/dH2O 75/25 (vol/vol)) was 14.03 mg×I^−1. For the same compound, the “C[MSS]” value ([2]; EtOH/dH2O 75/25 (vol/vol)) was 8.52 mg×I^−1, the ISI ([2]; EtOH/dH2O 75/25 (vol/vol)) was 1.49 and the KSR ([2]; EtOH/dH2O 75/25 (vol/vol)) was 0.61. For the same compound, the “KSR, assessment in words” value ([2]; EtOH/dH2O 75/25 (vol/vol)) was “good”, the MSS ([2]; EtOH/dH2O 75/25 (vol/vol)) was 19.67 mg×I^−1×min^−1 and the “MSS, assessment in words” value ([2]; EtOH/dH2O 75/25 (vol/vol)) was “good”. For the same compound, the “ΔC [CEq − CMSS]” value ([2]; EtOH/dH2O 75/25 (vol/vol)) was 5.51 mg×I^−1.
With O.O.O=c1c(-c2ccc(O)cc2)coc2cc(O)cc(O)c12.[K] [genistein potassium salt dihydrate] the “maximum of water adsorbed (GVS)” value [3] was 16 wt %, the “moisture change (GVS)” value [3] was “ca. 3%” and the “disproportionation (XRPD)” value [4] was “No signs of disproportionation”. For the same compound, the “pH of the supernatant after slurrying” value [4] was 7.3, the solubility at 24 h ([5]; Water/slurry pH 4.5, ambient temperature) was 0.04 mg/mL and the solubility at 24 h ([5]; Water/slurry pH 6.7, ambient temperature) was 0.057 mg/mL. For the same compound, the solubility at 24 h ([5]; Water/slurry pH 7.5, ambient temperature) was 0.069 mg/mL.
With O=c1c(-c2ccc(O)cc2)coc2cc(O)cc(O)c12.[K] [genistein potassium salt] the “stability, solid form change by XRPD” value [6] was “crystallizes to form genistein potassium salt dihydrate”.
In the case of O.O.O=c1c(-c2ccc(O)cc2)coc2cc(O)cc(O)c12.[Na] [genistein sodium salt dihydrate], the “maximum of water adsorbed (GVS)” value [3] is reported as 45 wt %, the “moisture change (GVS)” value [3] is reported as “ca. 2%” and the Solubility ([1]; 1,4-dioxane) is reported as <10.6 mg/mL. For the same compound, the Solubility ([1]; Acetone/IPA (50:50)) was 20.2 mg/mL, the Solubility ([1]; Acetonitrile (MeCN)) was <10.4 mg/mL and the Solubility ([1]; Cyclohexane) was <10.9 mg/mL. For the same compound, the Solubility ([1]; Dichloromethane (DCM)) was <10.8 mg/mL, the Solubility ([1]; Diisopropylether (DIPE)) was <9.7 mg/mL and the Solubility ([1]; Heptane) was <9.9 mg/mL. For the same compound, the Solubility ([1]; Methanol (MeOH)) was <8.8 mg/mL, the Solubility ([1]; Methyl isobutyl ketone (MIBK)) was <9.0 mg/mL and the Solubility ([1]; Octanol) was <11 mg/mL. For the same compound, the Solubility ([1]; Tetrahydrofuran (THF)) was <10.4 mg/mL, the Solubility ([1]; Toluene) was <9.9 mg/mL and the Solubility ([1]; Toluene/Dioxane (50:50)) was <9.7 mg/mL. For the same compound, the “disproportionation (XRPD)” value [4] was “No signs of disproportionation”, the “pH of the supernatant after slurrying” value [4] was 7.1 and the “C[Eq]” value ([2]; EtOH 100%) was 11.20 mg×I^−1. For the same compound, the “C[MSS]” value ([2]; EtOH 100%) was 10.85 mg×I^−1, the ISI ([2]; EtOH 100%) was 0.07 and the KSR ([2]; EtOH 100%) was 0.97. The “KSR, assessment in words” value ([2]; EtOH 100%) was “excellent”, the MSS ([2]; EtOH 100%) was 36.90 mg×I^−1×min^−1 and the “MSS, assessment in words” value ([2]; EtOH 100%) was “excellent”. The “ΔC [C, − CMSS]” value ([2]; EtOH 100%) was 0.35 mg×I^−1, the “C[Eq]” value ([2]; EtOH/dH2O 50/50 (vol/vol)) was 17.40 mg×I^−1 and the “C[MSS]” value ([2]; EtOH/dH2O 50/50 (vol/vol)) was 14.67 mg×I^−1. For the same compound, the ISI ([2]; EtOH/dH2O 50/50 (vol/vol)) was 0.60, the KSR ([2]; EtOH/dH2O 50/50 (vol/vol)) was 0.84 and the “KSR, assessment in words” value ([2]; EtOH/dH2O 50/50 (vol/vol)) was “excellent”. For the same compound, the MSS ([2]; EtOH/dH2O 50/50 (vol/vol)) was 20.66 mg×I^−1×min^−1, the “MSS, assessment in words” value ([2]; EtOH/dH2O 50/50 (vol/vol)) was “excellent” and the “ΔC [CEq − CMSS]” value ([2]; EtOH/dH2O 50/50 (vol/vol)) was 2.73 mg×I^−1. The “C[Eq]” value ([2]; EtOH/dH2O 75/25 (vol/vol)) was 15.86 mg×I^−1, the “C[MSS]” value ([2]; EtOH/dH2O 75/25 (vol/vol)) was 11.20 mg×I^−1 and the ISI ([2]; EtOH/dH2O 75/25 (vol/vol)) was 1.26. For the same compound, the KSR ([2]; EtOH/dH2O 75/25 (vol/vol)) was 0.71, the “KSR, assessment in words” value ([2]; EtOH/dH2O 75/25 (vol/vol)) was “excellent” and the MSS ([2]; EtOH/dH2O 75/25 (vol/vol)) was 37.33 mg×I^−1×min^−1. The “MSS, assessment in words” value ([2]; EtOH/dH2O 75/25 (vol/vol)) was “excellent”, the “ΔC [CEq − CMSS]” value ([2]; EtOH/dH2O 75/25 (vol/vol)) was 4.66 mg×I^−1 and the “mean peak plasma concentration (Cmax) fold higher compared to genistein” value [7] was 4.2 fold. The “time after ID dosing at which maximum plasma concentration (Cmax) was observed” value ([8]; intraduodenal dosing, mean plasma profile (FIG. 13)) was ≤ 15 min and the “pharmacokinetic profile following IV dosing, compared with genistein” value ([8]; intravenous 1 mg/kg) was “not significantly different”.

Source: patent publication US9492425B2 (priority 2008, dated 2016)
